Where two headings read alike, the source gives them in different places.
Molecular target: T1, MiRP2-Kv2.1 (Rattus norvegicus, UniProt P15387)
T1 construct: expressed in transfected cells; host or cells: Xenopus oocytes (co-injected cRNA)
T1 sequence (P15387 1-857): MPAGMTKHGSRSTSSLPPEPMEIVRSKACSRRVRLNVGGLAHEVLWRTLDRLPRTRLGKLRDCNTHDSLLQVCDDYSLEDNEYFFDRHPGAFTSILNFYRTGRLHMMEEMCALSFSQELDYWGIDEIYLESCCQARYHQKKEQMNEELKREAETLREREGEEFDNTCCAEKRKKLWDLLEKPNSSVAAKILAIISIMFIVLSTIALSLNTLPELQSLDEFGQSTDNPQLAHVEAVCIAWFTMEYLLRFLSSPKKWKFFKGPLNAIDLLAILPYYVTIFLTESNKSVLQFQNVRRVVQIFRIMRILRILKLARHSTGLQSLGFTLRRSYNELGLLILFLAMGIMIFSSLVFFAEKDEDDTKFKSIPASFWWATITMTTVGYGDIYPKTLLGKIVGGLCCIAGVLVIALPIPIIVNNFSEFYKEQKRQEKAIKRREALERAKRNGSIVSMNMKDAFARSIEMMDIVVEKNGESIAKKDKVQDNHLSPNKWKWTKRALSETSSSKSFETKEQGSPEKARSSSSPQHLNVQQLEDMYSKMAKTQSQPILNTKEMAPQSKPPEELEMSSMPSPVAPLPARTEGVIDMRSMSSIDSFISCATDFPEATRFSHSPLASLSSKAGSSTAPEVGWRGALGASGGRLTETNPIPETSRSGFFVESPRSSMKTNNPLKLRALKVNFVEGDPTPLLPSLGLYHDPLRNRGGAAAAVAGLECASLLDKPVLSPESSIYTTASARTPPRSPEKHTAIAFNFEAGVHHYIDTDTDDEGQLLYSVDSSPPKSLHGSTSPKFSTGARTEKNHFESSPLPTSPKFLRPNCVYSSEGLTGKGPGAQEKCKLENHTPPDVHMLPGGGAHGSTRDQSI
T1 sequence (Q9Y6H6 1-103 partner): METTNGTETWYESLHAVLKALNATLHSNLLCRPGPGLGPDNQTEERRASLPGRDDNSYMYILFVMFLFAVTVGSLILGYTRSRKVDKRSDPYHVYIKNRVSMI
Assay: TEVC of Xenopus oocytes co-injected with Kv2.1 and MiRP2 cRNA
Type: cell-based
Conditions: for p (Hill slope) of logistic dose-response fit: MiRP2-Kv2.1; for effect of MiRP2 on sensitivity of Kv2.1 to the compound: MiRP2-Kv2.1 versus Kv2.1 alone
Method: Stage V-VI Xenopus oocytes are separated into small groups using forceps, defolliculated by agitation in Ca^2+-free Ringer solution containing collagenase for one hour, washed, then stored at 15° C. in full Ringers solution before injection. cRNA sufficient to give 1-10 μA of current at physiological voltages for each channel type is injected into Xenopus oocytes (selected by appearance for overall health and uniformity of color) using a Sutter manual injector (typically 0.1-5 ng cRNA in a volume of 25-50 nl). The oocytes are then stored for 1-3 days at 15° C. before TEVC recording. Beta subunit cRNA is co-injected as appropriate, typically 2 ng per oocyte.
Whole cell oocyte experiments are performed using a Warner OC-725C amplifier and pClamp9 software with oocytes bathed in a small-volume Warner oocyte bath and viewed with a Fisher dissection microscope. Bath solution for whole cell oocyte recordings, e.g., for potassium channel analysis, is generally (in mM): 96 NaCl, 4 KCl, 1 MgCl2, 0.3 CaCl2, 10 HEPES (Ph 7.4); whole-cell oocyte TEVC pipettes are filled with 3 M KCl. Oocyte patches are studies using an Axon Instruments small-volume bath, viewed with an Olympus IX50 inverted microscope, and recordings made using an Axon Multiclamp 700 A Amplifier and pCLAMP9 software (Axon Instruments). Extracellular solution, e.g., for potassium channel analysis, is generally (in mM): 135 NaCl, 5 KCl, 1.2 MgCl2, 5 HEPES, 2.5 CaCl2, 10 D-glucose (Ph 7.4). Intracellular solution, e.g., for potassium channel analysis, is generally (in mM): 10 NaCl, 117 KCl, 2 MgCl2, 11 HEPES, 11 EGTA, ICaCl2 (Ph 7.2). Patch pipettes are approximately 3-5 MΩ resistance when filled with recording solution.
Quantitative aspects of ion action on ion channels are compared using standard pulse protocols. Pulse times and voltages will vary according to which currents are being studied. I/V and G/V curves are typically fit to a standard Boltzmann function: 1/{1+exp[(V1/2−V)/Vs]}, where V1/2 is the half-maximal voltage of activation and Vs the slope factor, for quantification and comparison. Kinetics of drug effects upon wash-in are generally fit with single or multiple exponential functions and values for τ and amplitude reported. Drug inhibition constants are calculated after generating a dose response curve by fitting with a logistic dose-response function (see equation (i) below). Typically, 5-20 cells per group are recorded from for heterologous expression experiments. Values are to be stated as mean±SEM with statistical significance set at p<0.05 (unpaired students t-test, ANOVA or the Mann-Whitney Rank Sum Test as appropriate).
Injected oocytes, bathed in bath solution containing 4 mM KCl, unless otherwise stated, are impaled with current and voltage electrodes and clamped at −80 mV holding potential using a Warner OC-725C amplifier. For single-voltage dose-response assessment, currents are recorded for several pulses (each of 1-5 s at a frequency of 0.1 Hz depending upon channel type) in the absence of drug, until equilibrium current level is reached, and then during further pulses with bath application of various concentrations of drug, each until equilibrium current inhibition is observed, with a washout phase in between to eliminate the possibility of channel run-down and other non-drug effects. […] Drug concentrations are chosen to ensure inhibition values between 0 and 90-100% with at least 3 values within the linear portion of the curve so that the inhibition constant (Ki) can be calculated accurately by fitting with a logistic dose-response function (formula (i)) using the Origin 6.1 graph package.
We explored blocking effects on Kv2.1 with and without the MiRP2 ancillary subunit. Kv2.1 can co-assemble with MiRP2 in rat brain. The sensitivities of two diammonium compounds (JE188 and TA279) were analyzed by functional expression in Xenopus oocytes using two-electrode voltage clamp (TEVC), and bath application of the compounds at various concentrations. […]

SMILES	IC50	p (Hill slope) of logistic dose-response fit	effect of MiRP2 on sensitivity of Kv2.1 to the compound	IC50 (MiRP2-Kv2.1, external bath application, read-out: x0 of logistic dose-response fit of current inhibition (converted))
CCCCCCCCCCCCCCCC[N+]12CCN(CC1)CC2 [TA279, 1-aza-4-azonia-4-hexadecylbicyclo[2.2.2]octane]	1.3 ± 0.4 µM	0.8±0.2	did not significantly alter inhibition	
CCCCCCCCCCCC[N+]12CCN(CC1)CC2 [JE188, 1-aza-4-azonia-4-dodecylbicyclo[2.2.2]octane]		1.6±0.2	two-fold decrease in sensitivity	49.2 ± 8.2 µM

— US8143254B2, “Methods for modulating ion channels” (Cornell Research Foundation, Inc., priority 2005, dated 2012)
